Test results reported in PMC9393241, “Design, Synthesis, and Activity Assays of Cyclin-Dependent Kinase 1 Inhibitors With Flavone Scaffolds” (Frontiers in Chemistry, 2022).

Legend:
CDK1/cyclin B1 = biological target: T1, CDK1/cyclin B1 (Homo sapiens, UniProt P06493); assay: In vitro anti-CDK1/cyclin B1 kinase assay (Kinase-Glo luminescence); assay type: biochemical; conditions: for inhibition at 20 µM: test compounds at 20 μM, read-out: Inhibition rates (%) CDK1; for Selectivity: CDK1 compared with CDK4 (CDK4 IC50 / CDK1 IC50)
T1 construct: purchased
T1 sequence (P06493 whole entry): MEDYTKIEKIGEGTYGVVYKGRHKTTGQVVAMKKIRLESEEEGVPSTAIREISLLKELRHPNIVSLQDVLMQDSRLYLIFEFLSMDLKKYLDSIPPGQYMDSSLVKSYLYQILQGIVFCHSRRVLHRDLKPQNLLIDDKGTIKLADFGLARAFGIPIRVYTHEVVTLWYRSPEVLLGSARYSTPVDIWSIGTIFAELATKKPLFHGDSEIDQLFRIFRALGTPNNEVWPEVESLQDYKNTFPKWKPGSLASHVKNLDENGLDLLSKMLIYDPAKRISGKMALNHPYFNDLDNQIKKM
T1 sequence (P14635 whole entry partner): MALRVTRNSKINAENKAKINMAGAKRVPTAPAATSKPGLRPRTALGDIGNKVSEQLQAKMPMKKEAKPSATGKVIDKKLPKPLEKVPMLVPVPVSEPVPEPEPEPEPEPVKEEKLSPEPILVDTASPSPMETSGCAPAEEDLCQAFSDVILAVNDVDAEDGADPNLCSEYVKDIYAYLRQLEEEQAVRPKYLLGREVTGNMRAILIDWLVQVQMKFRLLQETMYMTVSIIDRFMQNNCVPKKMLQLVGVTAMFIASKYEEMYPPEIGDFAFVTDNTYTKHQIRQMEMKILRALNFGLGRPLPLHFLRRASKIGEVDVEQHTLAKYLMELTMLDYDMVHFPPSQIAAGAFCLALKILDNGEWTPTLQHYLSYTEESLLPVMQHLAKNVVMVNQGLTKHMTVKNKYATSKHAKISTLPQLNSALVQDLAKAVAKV
Experimental: (§1) In vitro anti-CDK1/cyclin B1 and CDK4/cyclin D3 assays were performed as described by the manufacturer. All test compounds and controls were dissolved in dimethyl sulfoxide (DMSO) to prepare 50 μM stock solutions. The stock solutions were diluted by double-distilled water and buffer to 40, 30, 20, and 10 μM working concentrations and stored at −20°C. Buffer, ATP, CDK substrate […], and distilled water were mixed, and then 25 μl of the mixture was added to a 96-well plate. Five microliters of 20 μM test compounds were sequentially added. CDK1/cyclin B1 was diluted to 1 ng/μl, and CDK4/cyclin D3 was diluted to 10 ng/μl using a buffer. Twenty microliters of the kinase solutions were incubated with the test compounds at 30°C for 45 min for CDK1/cyclin B1 and for 60 min for CDK4/cyclin D3. Finally, 50 μl of Kinase-Glo Max reagent was added to each well. The 96-well plate was covered with aluminum foil and incubated at room temperature for 15 min. Luminescence of the test compounds was measured with a microplate reader.

CDK4/cyclin D3 = biological target: T2, CDK4/cyclin D3 (Homo sapiens, UniProt P11802); assay: In vitro anti-CDK4/cyclin D3 kinase assay (Kinase-Glo luminescence); assay type: biochemical; conditions: for inhibition at 20 µM: test compounds at 20 μM, read-out: Inhibition rates (%) CDK4
T2 construct: purchased
T2 sequence (P11802 whole entry): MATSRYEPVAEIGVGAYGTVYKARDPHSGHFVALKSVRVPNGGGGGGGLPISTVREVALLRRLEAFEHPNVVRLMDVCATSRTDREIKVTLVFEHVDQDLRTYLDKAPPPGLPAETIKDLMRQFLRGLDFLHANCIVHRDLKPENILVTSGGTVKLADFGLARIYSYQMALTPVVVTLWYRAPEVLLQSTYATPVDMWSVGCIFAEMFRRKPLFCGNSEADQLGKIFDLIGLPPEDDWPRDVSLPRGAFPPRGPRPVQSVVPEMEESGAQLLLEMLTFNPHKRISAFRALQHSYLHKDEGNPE
T2 sequence (P30281 whole entry partner): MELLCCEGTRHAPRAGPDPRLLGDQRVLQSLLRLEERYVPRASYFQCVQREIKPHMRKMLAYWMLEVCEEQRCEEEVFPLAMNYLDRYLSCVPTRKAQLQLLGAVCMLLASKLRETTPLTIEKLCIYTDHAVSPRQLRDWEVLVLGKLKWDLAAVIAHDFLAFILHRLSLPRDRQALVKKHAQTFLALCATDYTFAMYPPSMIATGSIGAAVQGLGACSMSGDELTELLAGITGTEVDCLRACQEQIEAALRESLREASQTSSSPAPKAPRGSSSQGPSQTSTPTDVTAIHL
Experimental: as §1

Row | Structure (SMILES) | inhibition at 20 µM (CDK1/cyclin B1) [%] | inhibition at 20 µM (CDK4/cyclin D3) [%] | melting point [°C] | IC50 (CDK1/cyclin B1) [µM] | Selectivity (CDK1/cyclin B1) | IC50 (CDK4/cyclin D3) [µM]
1 | O=c1cc(-c2ccccc2)oc2c(CN3CCOCC3)c(O)c(O)c(O)c12 [Compound 1a] | 25.48 ± 0.11 | 6.71 ± 0.07 | – | – | – | –
2 | O=c1cc(-c2ccccc2)oc2c(CN3CCSCC3)c(O)c(O)c(O)c12 [Compound 1b] | 31.71 ± 0.08 | 0.09 ± 0.03 | – | – | – | –
3 | CN(C)Cc1c(O)c(O)c(O)c2c(=O)cc(-c3ccccc3)oc12 [Compound 1c] | 29.28 ± 0.11 | – | – | – | – | –
4 | CCCN(CCC)Cc1c(O)c(O)c(O)c2c(=O)cc(-c3ccccc3)oc12 [Compound 1d] | 31.11 ± 0.1 | 2.47 ± 0.08 | – | – | – | –
5 | O=c1cc(-c2ccccc2)oc2c(CN3CCSCC3)c3c(c(O)c12)OCCCCO3 [Compound 2b, 12-Hydroxy-9-phenyl-7-(thiomorpholinomethyl)-2,3,4,5-tetrahydro-[1,4]dioxocino[2,3-g]chromen-11-one] | 27.19 ± 0.07 | 10.18 ± 0.08 | 202.3 to 203.6 | – | – | –
6 | CN(C)Cc1c2c(c(O)c3c(=O)cc(-c4ccccc4)oc13)OCCCCO2 [Compound 2c, 7-((Dimethylamino)methyl)-12-hydroxy-9-phenyl-2,3,4,5-tetrahydro-[1,4]dioxocino[2,3-g]chromen-11-one] | 29.4 ± 0.09 | 10.96 ± 0.09 | 208.5 to 210.6 | – | – | –
7 | O=c1cc(-c2ccccc2)oc2c(CN3CCOCC3)c(OCc3ccccc3)c(O)c(O)c12 [Compound 3a, 7-(Benzyloxy)-5,6-dihydroxy-8-(morpholinomethyl)-2-phenyl-4H-chromen-4-one] | 38.11 ± 0.09 | 2.73 ± 0.06 | 218.3 to 219.8 | 42.2 ± 1.62 | 12.88 | 543.8 ± 4.83
8 | CCCN(CCC)Cc1c(OCCCCBr)c(O)c(O)c2c(=O)cc(-c3ccccc3)oc12 [Compound 3b, 7-(4-Bromobutoxy)-8-((dipropylamino)methyl)-5,6-dihydroxy-2-phenyl-4H-chromen-4-one] | 25.33 ± 0.11 | 6.01 ± 0.07 | 216.2 to 221.8 | – | – | –
9 | O=c1cc(-c2ccccc2)oc2cc(O)c(CN3CCCC3)c(O)c12 [Compound 4a, 5,7-Dihydroxy-2-phenyl-6-(pyrrolidin-1-ylmethyl)-4H-chromen-4-one] | 31.72 ± 0.1 | – | 195.2 to 196.3 | – | – | –
10 | CN1CCN(Cc2c(O)cc3oc(-c4ccccc4)cc(=O)c3c2O)CC1 [Compound 4b, 5,7-Dihydroxy-6-((4-methylpiperazin-1-yl)methyl)-2-phenyl-4H-chromen-4-one] | 28.14 ± 0.12 | – | 179.5 to 180.1 | – | – | –
11 | O=c1cc(-c2ccccc2)oc2c(CN3CCCC3)c(O)c(CN3CCCC3)c(O)c12 [Compound 5a, 5,7-Dihydroxy-2-phenyl-6,8-bis(pyrrolidin-1-ylmethyl)-4H-chromen-4-one] | 29 ± 0.12 | 7.22 ± 0.08 | 194.9 to 196.6 | – | – | –
12 | O=c1cc(-c2ccccc2)oc2c(CN3CC=CC3)c(O)c(CN3CC=CC3)c(O)c12 [Compound 5b, 6,8-Bis((2H-pyrrol-1(5H)-yl)methyl)-5,7-dihydroxy-2-phenyl-4H-chromen-4-one] | 28.66 ± 0.11 | – | 172.7 to 174.3 | – | – | –
13 | O=c1cc(-c2ccccc2)oc2c(CN3CCSCC3)c(O)c(CN3CCSCC3)c(O)c12 [Compound 5d, 5,7-Dihydroxy-2-phenyl-6,8-bis(thiomorpholinomethyl)-4H-chromen-4-one] | 30.39 ± 0.09 | – | 211 to 212.4 | – | – | –
14 | CN1CCN(Cc2c(O)c(CN3CCN(C)CC3)c3oc(-c4ccccc4)cc(=O)c3c2O)CC1 [Compound 5e, 5,7-Dihydroxy-6,8-bis((4-methylpiperazin-1-yl)methyl)-2-phenyl-4H-chromen-4-one] | 26.75 ± 0.1 | – | – | – | – | –
15 | O=c1cc(-c2ccccc2)oc2c(CN3CCCC3)c(O)cc(O)c12 [Compound 6a, 5,7-Dihydroxy-2-phenyl-8-(pyrrolidin-1-ylmethyl)-4H-chromen-4-one] | 35.95 ± 0.09 | 6.3 ± 0.07 | 192.9 to 193 | 51.4 ± 1.68 | 4.45 | 229 ± 4.55
16 | O=c1cc(-c2ccccc2)oc2c(CN3CCOCC3)c(O)cc(O)c12 [Compound 6b, 5,7-Dihydroxy-8-(morpholinomethyl)-2-phenyl-4H-chromen-4-one] | 34.47 ± 0.12 | 9.36 ± 0.09 | 217.6 to 219.5 | – | – | –
17 | O=c1cc(-c2ccccc2)oc2c(CN3CCSCC3)c(O)cc(O)c12 [Compound 6c, 5,7-Dihydroxy-2-phenyl-8-(thiomorpholinomethyl)-4H-chromen-4-one] | 34.19 ± 0.1 | 9.87 ± 0.09 | 218.3 to 219.5 | – | – | –

Row | Structure (SMILES) | inhibition at 20 µM (CDK1/cyclin B1) [%] | inhibition at 20 µM (CDK4/cyclin D3) [%] | melting point [°C] | IC50 (CDK1/cyclin B1) [µM] | Selectivity (CDK1/cyclin B1) | IC50 (CDK4/cyclin D3) [µM]
18 | CN(C)Cc1c(O)cc(O)c2c(=O)cc(-c3ccccc3)oc12 [Compound 6d, 8-((Dimethylamino)methyl)-5,7-dihydroxy-2-phenyl-4H-chromen-4-one] | 31.24 ± 0.08 | 7.46 ± 0.06 | 241.9 to 242.3 | – | – | –
19 | O=c1cc(-c2ccccc2)oc2cc(OCc3ccccc3)cc(O)c12 [Compound 7a, 7-(Benzyloxy)-5-hydroxy-2-phenyl-4H-chromen-4-one] | 39.51 ± 0.06 | – | – | 55 ± 1.45 | 2.37 | 130 ± 2.84
20 | COc1cc(O)c2c(=O)cc(-c3ccccc3)oc2c1 [Compound 7b, 5-Hydroxy-7-methoxy-2-phenyl-4H-chromen-4-one] | 21.27 ± 0.09 | 1.76 ± 0.05 | – | – | – | –
21 | O=c1cc(-c2ccccc2)oc2cc(OCCBr)cc(O)c12 [Compound 7c, 7-(2-Bromoethoxy)-5-hydroxy-2-phenyl-4H-chromen-4-one] | 22.74 ± 0.11 | – | 169.3 to 170.1 | – | – | –
22 | O=c1cc(-c2ccccc2)oc2cc(OCCCCBr)cc(O)c12 [Compound 7d, 7-(4-Bromobutoxy)-5-hydroxy-2-phenyl-4H-chromen-4-one] | 19.74 ± 0.11 | 1.83 ± 0.06 | 162.6 to 163.6 | – | – | –
23 | COc1cc2oc(-c3ccccc3)cc(=O)c2c(O)c1CN1CCOCC1 [Compound 8a, 5-Hydroxy-7-methoxy-6-(morpholinomethyl)-2-phenyl-4H-chromen-4-one] | 31.04 ± 0.1 | – | 187 to 188.6 | – | – | –
24 | COc1cc2oc(-c3ccccc3)cc(=O)c2c(O)c1CN1CCSCC1 [Compound 8b, 5-Hydroxy-7-methoxy-2-phenyl-6-(thiomorpholinomethyl)-4H-chromen-4-one] | 20.47 ± 0.08 | – | 210.3 to 212 | – | – | –
25 | COc1ccc(-c2cc(=O)c3c(O)c(CN4CCN(C)CC4)c(O)cc3o2)cc1 [Compound 9a, 5,7-Dihydroxy-2-(4-methoxyphenyl)-6-((4-methylpiperazin-1-yl)methyl)-4H-chromen-4-one] | 26.36 ± 0.09 | 5.43 ± 0.06 | 172.3 to 173.4 | – | – | –
26 | CCCN(CCC)Cc1c(O)cc2oc(-c3ccc(OC)cc3)cc(=O)c2c1O [Compound 9b, 6-((Dipropylamino)methyl)-5,7-dihydroxy-2-(4-methoxyphenyl)-4H-chromen-4-one] | 30.69 ± 0.1 | 8.55 ± 0.09 | 180.6 to 181.3 | – | – | –
27 | COc1ccc(-c2cc(=O)c3c(O)c(CN4CCCC4)c(O)c(CN4CCCC4)c3o2)cc1 [Compound 10a, 5,7-Dihydroxy-2-(4-methoxyphenyl)-6,8-bis(pyrrolidin-1-ylmethyl)-4H-chromen-4-one] | 24.07 ± 0.1 | 4.68 ± 0.07 | 207.1 to 207.3 | – | – | –
28 | COc1ccc(-c2cc(=O)c3c(O)c(CN4CCSCC4)c(O)c(CN4CCSCC4)c3o2)cc1 [Compound 10b, 5,7-Dihydroxy-2-(4-methoxyphenyl)-6,8-bis(thiomorpholinomethyl)-4H-chromen-4-one] | 29.54 ± 0.11 | – | 214.2 to 215.5 | – | – | –
29 | COc1ccc(-c2cc(=O)c3c(O)c(CN4CCN(C)CC4)c(O)c(CN4CCN(C)CC4)c3o2)cc1 [Compound 10c, 5,7-Dihydroxy-2-(4-methoxyphenyl)-6,8-bis((4-methylpiperazin-1-yl)methyl)-4H-chromen-4-one] | 27.7 ± 0.12 | 8.57 ± 0.09 | 161.8 to 161.9 | – | – | –
30 | COc1ccc(-c2cc(=O)c3c(O)cc(O)c(CN4CCSCC4)c3o2)cc1 [Compound 11a, 5,7-Bihydroxy-2-(4-methoxyphenyl)-8-(thiomorpholinomethyl)-4H-chromen-4-one] | 26.12 ± 0.1 | – | 211 to 213.4 | – | – | –
31 | COc1ccc(-c2cc(=O)c3c(O)cc(OC)cc3o2)cc1 [Compound 12b, 5-Hydroxy-7-methoxy-2-(4-methoxyphenyl)-4H-chromen-4-one] | 32.4 ± 0.11 | 7.93 ± 0.08 | – | – | – | –
32 | COc1ccc(-c2cc(=O)c3c(O)cc(O)cc3o2)cc1 [acacetin, reference compound] | 34.64 ± 0.11 | 10.44 ± 0.07 | – | 31.9 ± 1.08 | 6.45 | 206 ± 3.61
33 | O=c1cc(-c2ccccc2)oc2cc(O)c(O)c(O)c12 [baicalein, reference compound] | 18.85 ± 0.09 | – | – | 62.7 ± 1.52 | 5.65 | 354 ± 5.67
34 | O=c1cc(-c2ccccc2)oc2cc(O)cc(O)c12 [chrysin, reference compound] | 32.77 ± 0.09 | – | – | 36.6 ± 1.23 | 6.13 | 225 ± 3.46
